Source: patent publication US10414718B2, “Dezocine analogue” (priority 2016, dated 2019)
Where a name gives a salt, the structure may show the parent alone.

Tests used:
Assay type in all cases: cell-based
μ opioid receptor = biological target: T1, μ opioid receptor (Homo sapiens, UniProt P35372); assay: FLIPR intracellular calcium signal test, HEK293-μ cells; conditions: for EC50: EC50 (activation) test, read-out: Mu receptor EC50; for IC50: IC50 (inhibition) test against EC80 of positive agonist, read-out: Mu receptor IC50
T1 construct: expressed in transfected cells
Experimental: (§1) Fluorescence imaging plate reader FLIPR was used to detect changes of intracellular calcium signals. EC50 and IC50 values of the compounds were used as indicators to evaluate the activation or inhibition of the compounds on μ, κ, and δ opioid receptors.
(§2) Cell lines: HEK293-μ, HEK293-κ and HEK293-δ, stable-transfected cell lines HEK293-μ, HEK293-κ and HEK293-δ; Cell culture media (DMEM, Invitrogen #11965118, 10% fetal bovine serum Invitrogen #10099141, Geneticin Selective Antibiotic (G418) 300 μg/mL, Invitrogen #10131027, Blasticidin-S HCL 2 ug/mL Invitrogen #A1113902)
(§3) 1. Cell Seeding (HEK293-μ, HEK293-κ and HEK293-δ Cells)
(§4) 1) Preheating medium, pancreatic enzyme, and DPBS in a 37° C. water bath. Aspirating the culture medium from the cell culture flask and washing it with 10 mL DPBS;
(§5) 2) Adding the preheated pancreatic enzyme solution to the cell culture flask, rotating the flask slightly to make the pancreatic enzymes evenly cover the cell surface of the flask, and then putting it into a 37° C., 5% CO2 incubator to digest for 1-2 minutes;
(§6) 3) Suspending the cells with 10-15 mL culture medium in each T150 cm^2 cell culture flask, centrifugating at 800 rpm for 5 minutes, and resuspending the cells with 10 mL culture medium, aspirating 1 mL cell resuspension to be counted with Vi-cell;
(§7) 4) Diluting HEK293-μ, HEK293-κ and HEK293-δ cells to 5×10^5/mL with culture medium, use multichannel pipette to add diluted cells into 384 plate (Greiner #781946) (50 μL/well, 25000 cells/well for HEK293-μ, HEK293-κ and HEK293-δ cells). Placing the cell plate in a 37° C., 5% CO2 incubator overnight.
(§8) 2. Adding Compound Samples:
(§9) 1) Diluting the compound to 20 mM with DMSO, 3 fold diluted, 8 gradients, double reduplicative wells, and adding it to the compound plate using an Echo ultrasonic liquid handler device (Echo liquid handler).
(§10) 1) Washing off the cell culture medium in 384 plate with vacuum pump, adding 20 μL Fluo-4 Direct fluorescent dye, then incubating in a 37° C., 5% CO2 incubator for 50 minutes, followed by equilibrating at room temperature for 10 minutes.
(§11) 2) EC50 test: Adding 20 uL HBSS buffer (containing 20 mM HEPES) to the compound plate, mixing well and centrifugating. Placing the cell plate and compound plate into FLIPR and reading the fluorescence value.
(§12) Calculating the EC80 value with the EC50 value of the positive agonist, preparing 4× EC80 solution, adding it to the 384 compound plate by multichannel pipette, and mixing well and centrifugating.
(§13) 4) IC50 test: In FLIPR, successively placing 4× EC80 plate, cell plate, FLIPR tip, running the program and reading the fluorescence value.
(§14) 4. Data Analyzing: Using Prism 5.0 to Analyze the Data and Calculate the EC50 and IC50 Values of the Compounds.

δ opioid receptor = biological target: T2, δ opioid receptor (Homo sapiens, UniProt P41143); assay: FLIPR intracellular calcium signal test, HEK293-δ cells; conditions: for EC50: EC50 (activation) test, read-out: Delt receptor EC50; for IC50: IC50 (inhibition) test against EC80 of positive agonist, read-out: Delt receptor IC50
T2 construct: expressed in transfected cells
Experimental: as §1, §2, §3, §4, §5, §6, §7, §8, §9, §10, §11, §12, §13, §14

κ opioid receptor = biological target: T3, κ opioid receptor (Homo sapiens, UniProt P41145); assay: FLIPR intracellular calcium signal test, HEK293-κ cells; conditions: for EC50: EC50 (activation) test, read-out: Kapp receptor EC50; for IC50: IC50 (inhibition) test against EC80 of positive agonist, read-out: Kapp receptor IC50
T3 construct: expressed in transfected cells
Experimental: as §1, §2, §3, §4, §5, §6, §7, §8, §9, §10, §11, §12, §13, §14

T1 sequence (P35372 whole entry): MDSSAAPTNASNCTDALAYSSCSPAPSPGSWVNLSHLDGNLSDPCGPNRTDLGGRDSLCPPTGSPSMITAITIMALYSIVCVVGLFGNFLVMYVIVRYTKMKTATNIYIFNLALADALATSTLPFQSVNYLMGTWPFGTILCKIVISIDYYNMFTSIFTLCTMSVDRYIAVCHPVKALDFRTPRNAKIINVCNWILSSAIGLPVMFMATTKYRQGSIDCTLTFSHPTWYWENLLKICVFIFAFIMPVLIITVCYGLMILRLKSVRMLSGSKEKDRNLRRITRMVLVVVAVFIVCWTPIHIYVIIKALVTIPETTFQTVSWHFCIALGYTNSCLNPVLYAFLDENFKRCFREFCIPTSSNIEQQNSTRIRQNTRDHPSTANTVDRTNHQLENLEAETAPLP
T3 sequence (P41145 whole entry): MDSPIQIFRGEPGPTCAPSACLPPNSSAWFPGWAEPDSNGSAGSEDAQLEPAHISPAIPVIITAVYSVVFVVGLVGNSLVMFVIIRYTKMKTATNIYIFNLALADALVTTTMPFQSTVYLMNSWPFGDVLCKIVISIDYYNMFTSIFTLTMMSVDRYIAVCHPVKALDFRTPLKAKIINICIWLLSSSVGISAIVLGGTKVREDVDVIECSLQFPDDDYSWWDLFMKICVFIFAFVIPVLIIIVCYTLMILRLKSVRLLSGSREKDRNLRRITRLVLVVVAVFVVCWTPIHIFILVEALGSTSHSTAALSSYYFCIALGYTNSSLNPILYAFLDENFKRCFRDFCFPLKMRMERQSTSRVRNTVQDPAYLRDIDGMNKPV
T2 sequence (P41143 whole entry): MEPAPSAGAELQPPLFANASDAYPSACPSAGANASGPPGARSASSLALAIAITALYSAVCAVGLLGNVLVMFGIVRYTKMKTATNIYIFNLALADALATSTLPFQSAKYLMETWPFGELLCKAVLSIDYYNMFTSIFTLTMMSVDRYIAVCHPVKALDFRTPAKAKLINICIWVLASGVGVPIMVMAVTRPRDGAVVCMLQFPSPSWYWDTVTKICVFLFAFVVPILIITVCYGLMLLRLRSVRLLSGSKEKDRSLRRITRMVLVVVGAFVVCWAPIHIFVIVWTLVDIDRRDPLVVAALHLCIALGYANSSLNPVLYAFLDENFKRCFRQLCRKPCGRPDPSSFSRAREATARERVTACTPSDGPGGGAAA

Row | Compound | EC50 (μ opioid receptor) [µM] | IC50 (μ opioid receptor) [µM] | EC50 (δ opioid receptor) [µM] | IC50 (δ opioid receptor) [µM] | EC50 (κ opioid receptor) [µM] | IC50 (κ opioid receptor) [µM]
1 | CC12CCCCC(Cc3c(F)cc(O)cc31)C2N (single isomer, unassigned) [Compound 32] | 0.1 to 1 | 0.1 to 1 | > 100 | 1 to 10 | 0.1 to 1 | 0.1 to 1
2 | CC12CCCCC(Cc3c(F)cc(O)cc31)C2N (single isomer, unassigned) [Compound 33] | 0.1 to 1 | 1 to 10 | 1 to 10 | 1 to 10 | 0.1 to 1 | 0.1 to 1
3 | Cc1cc(O)cc2c1CC1CCCCCC2(C)C1N (stereo not shown) [Compound 1] | > 100 | ≤ 0.1 | > 100 | 1 to 10 | > 100 | 0.1 to 1
4 | CC12CCCCCC(Cc3ccc(O)cc31)C2N (stereo not shown) [Compound 2, reference compound] | – | – | > 100 | > 100 | > 100 | 1 to 10
5 | CC12CCCCCC(Cc3c(Cl)cc(O)cc31)C2N (stereo not shown) [Compound 3] | 0.1 to 1 | 0.1 to 1 | > 100 | 1 to 10 | > 100 | 0.1 to 1
6 | CC12CCCCCC(Cc3ccc(O)c(F)c31)C2N (stereo not shown) [Compound 4] | 0.1 to 1 | 0.1 to 1 | > 100 | > 100 | > 100 | 1 to 10
7 | CC12CCCCCC(Cc3cc(O)c(O)cc31)C2N (stereo not shown) [Compound 5] | 1 to 10 | 10 to 100 | > 100 | > 100 | 1 to 10 | 10 to 100
8 | CC12CCCCCC(Cc3c(F)cc(O)cc31)C2N (stereo not shown) [Compound 6] | ≤ 0.1 | 0.1 to 1 | > 100 | 1 to 10 | > 100 | 1 to 10
9 | COc1cc(O)cc2c1CC1CCCCCC2(C)C1N (stereo not shown) [Compound 7] | > 100 | 1 to 10 | > 100 | > 100 | > 100 | 1 to 10
10 | CC12CCOCCC(Cc3ccc(O)cc31)C2N (stereo not shown) [Compound 8] | 0.1 to 1 | 1 to 10 | > 100 | > 100 | > 100 | 1 to 10
11 | CCc1cc(O)cc2c1CC1CCCCCC2(C)C1N (stereo not shown) [Compound 9] | > 100 | 1 to 10 | > 100 | > 100 | > 100 | 1 to 10
12 | CC(C)c1cc(O)cc2c1CC1CCCCCC2(C)C1N (stereo not shown) [Compound 10] | > 100 | 10 to 100 | > 100 | > 100 | > 100 | 10 to 100
13 | CC12CCCCCC(Cc3c(-c4ccccc4)cc(O)cc31)C2N (stereo not shown) [Compound 11] | > 100 | > 100 | > 100 | > 100 | 10 to 100 | > 100
14 | CC12CCCCCC(Cc3cc(Br)c(O)cc31)C2N (stereo not shown) [Compound 12] | 10 to 100 | 10 to 100 | > 100 | > 100 | > 100 | > 100
15 | CC(C)c1cc2c(cc1O)C1(C)CCCCCC(C2)C1N (stereo not shown) [Compound 13] | 10 to 100 | 10 to 100 | > 100 | > 100 | 10 to 100 | 10 to 100
16 | Cc1cc2c(cc1O)C1(C)CCCCCC(C2)C1N (stereo not shown) [Compound 14] | 10 to 100 | 10 to 100 | > 100 | > 100 | > 100 | 10 to 100
17 | CC12CCCCCC(Cc3cc(C4CC4)c(O)cc31)C2N (stereo not shown) [Compound 15] | > 100 | > 100 | > 100 | > 100 | 10 to 100 | > 100
18 | CC12CCCCCC(Cc3c(CO)cc(O)cc31)C2N (stereo not shown) [Compound 18] | > 100 | 1 to 10 | > 100 | > 100 | > 100 | > 100
19 | CC12CCCCCC(Cc3cc(C#N)c(O)cc31)C2N (stereo not shown) [Compound 19] | > 100 | > 100 | > 100 | > 100 | > 100 | > 100
20 | CC12CCCCCC(Cc3cc(Cl)c(O)c(Cl)c31)C2N (stereo not shown) [Compound 20] | > 100 | 10 to 100 | > 100 | > 100 | > 100 | 10 to 100
21 | C[C@]12CCCCC[C@H](Cc3c(F)cc(O)cc31)[C@@H]2N [Compound 22] | 1 to 10 | 0.1 to 1 | > 100 | 10 to 100 | > 100 | 1 to 10
22 | C[C@]12CCCCC[C@H](Cc3c(Cl)cc(O)cc31)[C@H]2N [Compound 24] | 10 to 100 | 0.1 to 1 | > 100 | 1 to 10 | > 100 | 1 to 10
23 | C[C@@]12CCOCC[C@@H](Cc3ccc(O)cc31)[C@@H]2N [Compound 25] | 0.1 to 1 | 1 to 10 | > 100 | 1 to 10 | > 100 | 1 to 10
24 | C[C@]12CCOCC[C@H](Cc3ccc(O)cc31)[C@H]2N [Compound 26] | > 100 | 10 to 100 | > 100 | > 100 | > 100 | > 100
25 | CC12CCCCCC(Cc3c(O)cc(O)cc31)C2N (stereo not shown) [Compound 27] | > 100 | 1 to 10 | > 100 | > 100 | > 100 | 10 to 100
26 | CCCC12CCCCC(Cc3c(F)cc(O)cc31)C2N (stereo not shown) [Compound 30] | 0.1 to 1 | 0.1 to 1 | > 100 | 10 to 100 | > 100 | 0.1 to 1
27 | CC(C)CC12CCCCC(Cc3c(F)cc(O)cc31)C2N (stereo not shown) [Compound 31] | 10 to 100 | 10 to 100 | > 100 | > 100 | > 100 | 10 to 100
28 | CC12CCCCCC(Cc3cc(Cl)c(O)cc31)C2N (stereo not shown) [Hydrochloride of Compound 16] | 10 to 100 | 1 to 10 | > 100 | > 100 | > 100 | 1 to 10
29 | CC12CCCCCC(Cc3cc(F)c(O)cc31)C2N (stereo not shown) [Hydrochloride of Compound 17] | 1 to 10 | 1 to 10 | > 100 | > 100 | > 100 | 10 to 100
